The record followed here is publication PMC11137182, “Selective and brain-penetrant ACSS2 inhibitors target breast cancer brain metastatic cells” (Frontiers in Pharmacology, 2024).

One data set concerns 4T1BR cells. The experiment in a line: Acetyl-CoA quantification by LC-HRMS. The conditions noted are these: 100 μM, 48 hours. The class given is cell-based. The protocol:
Cells were grown to ∼80% confluency in a 10-cm dish in normal growth medium, 48 h prior to collecting cells, aspirate media and replace with fresh growth media and drug was added at 100 μM. To collect cells, media was aspirated and 1 mL of 10% trichloroacetic acid (w/v) in water was added directly to the cells. Cells were scraped and transferred into a 1.7 mL Eppendorf tube and stored at −80 until labeling. […] Lysates were centrifuged 17,000 g for 10 min at 4°C and supernatant was transferred to a deep-well 96-well plate for loading in a Tomtec Quadra4 liquid handling workstation. On the liquid handling workstation, lysates were applied to an Oasis HLB 96-well elution plate (30 mg of sorbent per well) pre-conditioned and equilibrated with 1 mL of methanol and 1 mL of water, respectively. After de-salting with 1 mL of water, analytes were eluted into a deep-well 96-well plate using 1 mL of 25 mM ammonium acetate in methanol. Eluent was evaporated dried under nitrogen gas. The dried LC-HRMS samples were resuspended in 50 µL of 5% (w/v) sulfosalicylic acid in water. […] A modified gradient using solvent A (5 mM ammonium acetate in water), solvent B (5 mM ammonium acetate in 95:5 (v:v) acetonitrile: water) and solvent C (0.1% (v/v) formic acid in 80:20 (v:v) acetonitrile: water). Data was acquired using XCalibur 4.0 (Thermo Scientific) and analyzed using Tracefinder 5.1 (Thermo Scientific).

The test system of another data set is MDA-MB-231BR cells. Put plainly: Clonogenic survival assay. The class given is cell-based. Conditions: 100 μM, 48 h treatment, 10 days growth. On the procedure:
Triple-negative brain trophic cells MDA-MB-231BR and 4T1BR cells were a kind gift from Dr. Patricia Steeg (Center for Cancer Research, National Cancer Institute) ([Achrol et al., 2019]). Both cell lines were cultured in DMEM supplemented with 10% fetal bovine serum (FBS), 5% 10,000 Units/mL Penicillin-10,000 μg/mL Streptomycin, and 5% 200 mM L-Glutamine. For crystal violet staining, 5 × 10^4 cells were plated and subjected to the treatments as described in the individual figures and then stained with 0.5% crystal violet prepared in a 1:1 methanol-water solution followed by PBS washes. ACSS2 inhibitors were dissolved in 100% ultra-pure DMSO.
To assess clonogenic survival, 1 × 10^5 cells were seeded into a 6-well plate until 70%–80% confluency and treated for 48 h with analogs at 100 uM (unless otherwise stated in the figure legend). After 48 h, cells were trypsinized and counted using hemocytomer, and 1 × 10^4 cells per treatment were plated into a 6-well plate with fresh culture medium and allowed to grow for 10 days. Following 10-day incubation, cells were washed twice with PBS, stained with crystal violet for 30 min, and washed with dH2O twice. Colonies >50mircons were counted. For crystal violet staining, 0.5% crystal violet was prepared in a 1:1 methanol-water solution.

Data set [1] deals with MDA-MB-231BR tumor bearing brain slices. The experiment in a line: Ex vivo tumor-brain slice model with irradiation. More on the design: species or system nu/nu mice. Conditions: 6 days. On the procedure:
Ex vivo brain slice tumor model was performed as previously described ([Ciraku et al., 2021]). Briefly, Nu/Nu athymic 4–6 week old mice Charles River Laboratories (Wilmington, MA, United States) were immobilized using the Just for Mice Stereotaxic Frame (Harvard Apparatus, Holliston, MA, United States) and injected intracranially with 5uL of 20,000 cells/uL solution of luciferase tagged MDA-MB-231BR or 4T1BR cells. Tumor growth was monitored via bioluminescence imaging on the IVIS system (Perkin Elmer, Waltman, MA, United States). Organotypic hippocampal cultures were prepared as described previously ([Ciraku et al., 2021]). Briefly, adult mice (4–6 weeks) or mice after 12 days following intracranial injection were decapitated and their brains rapidly removed into ice-cold (4°C) sucrose-aCSF composed of the following (in mM): 280 sucrose, 5 KCl, 2 MgCl2, 1 CaCl2, 20 glucose, 10 HEPES, 5 Na^+-ascorbate, 3 thiourea, 2 Na^+-pyruvate; pH = 7.3. […] Tumor growth was monitored via bioluminescence imaging on the IVIS 200 system (Perkin Elmer), and results were analyzed using Living Image software (Caliper Life Sciences, Waltham, MA, United StatesUnited States). […] Tissues were incubated at 37 ℃ , 5% CO2 for 4 h, and absorbance at 490 nm was measured with a Tecan Spark Microplate reader.

Data set [2] can be described thus: Human liver microsome stability. The conditions noted are these: human, liver microsomes. For orientation: Microsomes from liver hold many membrane-bound enzymes, among them those of drug oxidation.

Molecules are shown by their SMILES.

As to `N[C@H](C(=O)N1CCCC(c2ccccc2)(c2ccccc2)C1)C1CC1` [AD-8007], the acetyl-CoA levels result in the data set on 4T1BR cells is recorded as “significantly reduced acetyl-CoA levels”. Besides, the clonogenic survival entry in the data set with MDA-MB-231BR cells is reported as “significant reduction in clonogenic survival”. The “preformed BCBM tumors ex vivo, combination with radiation” value in data set [1] (20 μM plus one dose of 6 Gy) is “significantly reduced preformed BCBM tumors”. In addition, in data set [1] (suboptimal dose 20 µM, no irradiation), the “BCBM cell growth ex vivo, drug alone” value is on record as “little effect on BCBM cell growth”. For the same compound, in data set [2], the intrinsic clearance (CLint scaled) is under 8.6 mL/min/kg and the microsomal CLint is under 9.6 µL/min/mg. For the same compound, the half-life in data set [2] (Human Liver Microsome Stability T1/2, human liver microsomes) is over 2.42 h.

The CLint scaled is a measure of how fast metabolising enzymes remove a compound, apart from limits set by blood flow. The low end stands for greater metabolic stability, the high end for faster metabolism. One may read the microsomal CLint as the rate of metabolic loss divided by the concentration. Higher therefore signals rapid turnover. As usually defined, the half-life is the time needed for the level to fall by half in the phase considered.
